In ChEMBL document CHEMBL1201862, “PubChem BioAssay data set” (2004):
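Grown in 96-well plates, cells were treated for 48 hours with each compound at five concentrations. Insufficient inhibition: endpoint recorded as highest concentration tested. GI50 is the concentration that inhibits growth by half.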 Active and inactive are the calls of the source. Rule as the data show it: active = GI50 up to about 1.1 µM and inactive = higher.

What was measured:
Assay in all cases: growth of human tumour cells (NCI), 48 h
MDA-MB-435 = tested on: MDA-MB-435
HOP-92 = tested on: HOP-92
K562 = tested on: K562
SF-268 = tested on: SF-268
OVCAR-8 = tested on: OVCAR-8
CCRF-CEM = tested on: CCRF-CEM
NCI-H226 = tested on: NCI-H226
COLO 205 = tested on: COLO 205
RPMI-8226 = tested on: RPMI-8226
PC-3 = tested on: PC-3
TK-10 = tested on: TK-10
HCT-116 = tested on: HCT-116
EKVX = tested on: EKVX
HT-29 = tested on: HT-29
SF-539 = tested on: SF-539
SK-OV-3 = tested on: SK-OV-3
CAKI-1 = tested on: CAKI-1
SK-MEL-2 = tested on: SK-MEL-2
ACHN = tested on: ACHN
RXF 393 = tested on: RXF 393

Measured: GI50

NC(=O)C[C@H](NC(=O)C1(NC(=O)[C@H](Cc2ccc(CP(=O)(O)O)cc2)NC(=O)C(=O)O)CCCCC1)C(=O)NCCCc1cccc2ccccc12
inactive: MDA-MB-435 > 10 µM | HOP-92 > 10 µM | K562 > 10 µM | SF-268 > 10 µM | OVCAR-8 > 10 µM | CCRF-CEM 8.28 µM | NCI-H226 7.45 µM | COLO 205 > 10 µM | RPMI-8226 > 10 µM | PC-3 > 10 µM | TK-10 > 10 µM | HCT-116 > 10 µM | EKVX > 10 µM | HT-29 > 10 µM | SF-539 > 10 µM | SK-OV-3 > 10 µM | CAKI-1 > 10 µM | SK-MEL-2 > 10 µM | ACHN > 10 µM | RXF 393 > 10 µM

Oc1ccc2ccccc2c1-c1c(Nc2ccccc2)ccc2ccccc12
inactive: MDA-MB-435 6.34 µM | HOP-92 1.32 µM | K562 13.7 µM | SF-268 16.7 µM | OVCAR-8 16.6 µM | CCRF-CEM 16.2 µM | NCI-H226 21 µM | COLO 205 19.9 µM | RPMI-8226 17.8 µM | PC-3 18.4 µM | TK-10 16.9 µM | HCT-116 11.6 µM | EKVX 16.9 µM | HT-29 33.7 µM | SF-539 14 µM | SK-OV-3 6.08 µM | CAKI-1 14.9 µM | SK-MEL-2 17.2 µM | ACHN 19.9 µM | RXF 393 17.2 µM

CC1=C(C)SC(=C2Sc3c(n(C)c(=O)n(C)c3=O)S2)S1
inactive: MDA-MB-435 98.6 µM | HOP-92 53.7 µM | K562 62.7 µM | SF-268 43.8 µM | OVCAR-8 23.6 µM | CCRF-CEM > 100 µM | NCI-H226 20 µM | COLO 205 89.9 µM | RPMI-8226 > 100 µM | PC-3 > 100 µM | TK-10 27.9 µM | HCT-116 10.7 µM | EKVX > 100 µM | HT-29 76.9 µM | SF-539 13.2 µM | SK-OV-3 15.5 µM | CAKI-1 64.3 µM | SK-MEL-2 22.3 µM | ACHN 45 µM | RXF 393 48.4 µM

O=c1oc2ncccc2n1Cc1ccc([N+](=O)[O-])cc1
inactive: MDA-MB-435 > 100 µM | HOP-92 > 100 µM | K562 > 100 µM | SF-268 > 100 µM | OVCAR-8 > 100 µM | CCRF-CEM > 100 µM | NCI-H226 > 100 µM | COLO 205 > 100 µM | RPMI-8226 > 100 µM | PC-3 > 100 µM | TK-10 > 100 µM | HCT-116 68.2 µM | EKVX > 100 µM | HT-29 > 100 µM | SF-539 > 100 µM | SK-OV-3 > 100 µM | CAKI-1 > 100 µM | SK-MEL-2 > 100 µM | ACHN > 100 µM | RXF 393 > 100 µM

COC1(CC[C@@H](C)COC2OC(CO)C(O)C(O)C2O)OC2C[C@H]3[C@@H]4CC[C@H]5C[C@@H](OC6OC(CO)C(OC7OC(CO)C(O)C(O)C7O)C(O)C6OC6OC(C)C(O)C(O)C6O)[C@H](O)C[C@]5(C)[C@H]4CC[C@]3(C)C2[C@@H]1C (stereo not given in full)
inactive: MDA-MB-435 1.84 µM | HOP-92 4.24 µM | K562 2.37 µM | SF-268 2.07 µM | OVCAR-8 1.99 µM | CCRF-CEM 1.88 µM | NCI-H226 2.22 µM | COLO 205 2.57 µM | RPMI-8226 2 µM | PC-3 1.87 µM | TK-10 2.12 µM | HCT-116 1.86 µM | EKVX 2.14 µM | HT-29 2.19 µM | SF-539 1.83 µM | SK-OV-3 1.87 µM | CAKI-1 2.01 µM | SK-MEL-2 2.12 µM | ACHN 1.77 µM | RXF 393 2.04 µM

O=C(/C=C/c1ccc2ccccc2c1)NCc1ccc(C(=O)NCc2ccccc2)cc1
inactive: MDA-MB-435 > 100 µM | HOP-92 > 100 µM | K562 > 31.6 µM | SF-268 36.5 µM | OVCAR-8 30.4 µM | CCRF-CEM > 93.3 µM | NCI-H226 26.3 µM | COLO 205 > 100 µM | RPMI-8226 > 93.8 µM | PC-3 > 100 µM | TK-10 > 100 µM | HCT-116 > 100 µM | EKVX > 100 µM | HT-29 35.7 µM | SF-539 27.5 µM | SK-OV-3 > 100 µM | CAKI-1 28.3 µM | SK-MEL-2 > 100 µM | ACHN > 68.7 µM | RXF 393 41.8 µM
